# Laboratory results from article PMC5344920, “Drug Repurposing of the Anthelmintic Niclosamide to Treat Multidrug-Resistant Leukemia” (Frontiers in Pharmacology, 2017).
# Molecular target: T1, recombinant human GS (GSH synthetase, glutathione synthetase) (Homo sapiens, UniProt P48637)
# T1 construct: gene GSS; commercial recombinant protein (Abcam, Cambridge, UK), labelled on amines with BLUE-NHS dye
# T1 sequence (P48637 2-474): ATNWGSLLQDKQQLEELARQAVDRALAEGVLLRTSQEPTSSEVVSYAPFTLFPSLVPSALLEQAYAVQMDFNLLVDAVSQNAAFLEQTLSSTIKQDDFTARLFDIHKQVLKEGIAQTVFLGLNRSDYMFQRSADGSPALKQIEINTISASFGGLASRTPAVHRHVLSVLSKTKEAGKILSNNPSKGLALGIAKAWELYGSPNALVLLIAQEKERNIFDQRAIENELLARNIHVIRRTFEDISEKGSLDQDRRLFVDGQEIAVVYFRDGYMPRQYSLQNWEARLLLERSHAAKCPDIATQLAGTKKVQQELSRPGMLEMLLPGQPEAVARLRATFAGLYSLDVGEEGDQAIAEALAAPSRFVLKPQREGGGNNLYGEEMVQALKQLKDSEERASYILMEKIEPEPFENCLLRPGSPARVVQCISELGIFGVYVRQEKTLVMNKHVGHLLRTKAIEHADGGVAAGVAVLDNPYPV
# Assay: microscale thermophoresis, BLUE-NHS labelled protein
# Conditions: read-out: equilibrium binding constant
smiles,measurement,value
O=C(Nc1ccc([N+](=O)[O-])cc1Cl)c1cc(Cl)ccc1O [niclosamide],Kd,5.64 µM
